Tests used:
Assay in all cases: relative viability (nuclei count vs DMSO), 5 days (fraction); higher = more cells survive
[1] = system: NCI-H2087
Method in brief: (§1)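 Lung cancer cell lines in 1536-well plates got either a single drug or a fixed anchor-drug dose together with five library-drug doses (not always all listed) in √10 steps, by pin tool, on the day after seeding. Nuclei were counted after 5 days, and relative viability is the treated-to-vehicle ratio of nuclei counts. Values are medians of duplicate plates.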

[2] = system: SK-MES-1
Method in brief: as §1

[3] = system: PC-14
Method in brief: as §1

[4] = system: NCI-H2085
Method in brief: as §1

[5] = system: LXF-289
Method in brief: as §1

[6] = system: NCI-H1563
Method in brief: as §1

[7] = system: NCI-H520
Method in brief: as §1

[8] = system: NCI-H1993
Method in brief: as §1

[9] = system: NCI-H1355
Method in brief: as §1

[10] = system: NCI-H1666
Method in brief: as §1

[11] = system: NCI-H1755
Method in brief: as §1

[12] = system: NCI-H2170
Method in brief: as §1

[13] = system: NCI-H1792
Method in brief: as §1

[14] = system: LU99A
Method in brief: as §1

[15] = system: COR-L23
Method in brief: as §1

[16] = system: BEN
Method in brief: as §1

[17] = system: NCI-H460
Method in brief: as §1

[18] = system: CAL-12T
Method in brief: as §1

[19] = system: NCI-H1651
Method in brief: as §1

[20] = system: HCC-44
Method in brief: as §1

[21] = system: NCI-H1437
Method in brief: as §1

[22] = system: NCI-H1650
Method in brief: as §1

## Cc1csc(=NC2CCCCC2)n1/N=C/c1ccc(O)c(O)c1O [MIM1] + CCNC(=O)c1noc(-c2cc(C(C)C)c(O)cc2O)c1-c1ccc(CN2CCOCC2)cc1 [Luminespib] (partner 0.01 µM)
[1]; first compound 0.2 µM
  relative viability: 0.145
[1]; first compound 0.6325 µM
  relative viability: 0.183
[1]; first compound 2 µM
  relative viability: 0.199
[1]; first compound 6.325 µM
  relative viability: 0.176
[1]; first compound 20 µM
  relative viability: 0.132
[2]; first compound 0.2 µM
  relative viability: 0.754
[2]; first compound 0.6325 µM
  relative viability: 0.828
[2]; first compound 2 µM
  relative viability: 0.708
[2]; first compound 6.325 µM
  relative viability: 0.55
[2]; first compound 20 µM
  relative viability: 0.215
[3]; first compound 0.2 µM
  relative viability: 0.177
[3]; first compound 0.6325 µM
  relative viability: 0.137
[3]; first compound 2 µM
  relative viability: 0.17
[3]; first compound 6.325 µM
  relative viability: 0.115
[3]; first compound 20 µM
  relative viability: 0.144
[4]; first compound 0.2 µM
  relative viability: 0.42
[4]; first compound 0.6325 µM
  relative viability: 0.466
[4]; first compound 2 µM
  relative viability: 0.455
[4]; first compound 6.325 µM
  relative viability: 0.442
[4]; first compound 20 µM
  relative viability: 0.404
[5]; first compound 0.2 µM
  relative viability: 0.708
[5]; first compound 0.6325 µM
  relative viability: 0.649
[5]; first compound 2 µM
  relative viability: 0.659
[5]; first compound 6.325 µM
  relative viability: 0.54
[5]; first compound 20 µM
  relative viability: 0.453
[6]; first compound 0.2 µM
  relative viability: 0.51
[6]; first compound 0.6325 µM
  relative viability: 0.607
[6]; first compound 2 µM
  relative viability: 0.519
[6]; first compound 6.325 µM
  relative viability: 0.553
[6]; first compound 20 µM
  relative viability: 0.362
[7]; first compound 0.2 µM
  relative viability: 0.208
[7]; first compound 0.6325 µM
  relative viability: 0.259
[7]; first compound 2 µM
  relative viability: 0.178
[7]; first compound 6.325 µM
  relative viability: 0.274
[7]; first compound 20 µM
  relative viability: 0.257
[8]; first compound 0.2 µM
  relative viability: 0.441
[8]; first compound 0.6325 µM
  relative viability: 0.663
[8]; first compound 2 µM
  relative viability: 0.652
[8]; first compound 6.325 µM
  relative viability: 0.633
[8]; first compound 20 µM
  relative viability: 0.499
[9]; first compound 0.2 µM
  relative viability: 0.698
[9]; first compound 0.6325 µM
  relative viability: 0.591
[9]; first compound 2 µM
  relative viability: 0.726
[9]; first compound 6.325 µM
  relative viability: 0.659
[9]; first compound 20 µM
  relative viability: 0.391
[10]; first compound 0.2 µM
  relative viability: 1.02
[10]; first compound 0.6325 µM
  relative viability: 1.13
[10]; first compound 2 µM
  relative viability: 1.02
[10]; first compound 6.325 µM
  relative viability: 0.884
[10]; first compound 20 µM
  relative viability: 0.767
[11]; first compound 0.2 µM
  relative viability: 0.455
[11]; first compound 0.6325 µM
  relative viability: 0.51
[11]; first compound 2 µM
  relative viability: 0.703
[11]; first compound 6.325 µM
  relative viability: 0.459
[11]; first compound 20 µM
  relative viability: 0.414
[12]; first compound 0.2 µM
  relative viability: 0.707
[12]; first compound 0.6325 µM
  relative viability: 0.497
[12]; first compound 2 µM
  relative viability: 0.729
[12]; first compound 6.325 µM
  relative viability: 0.473
[12]; first compound 20 µM
  relative viability: 0.434
[13]; first compound 0.2 µM
  relative viability: 0.449
[13]; first compound 0.6325 µM
  relative viability: 0.43
[13]; first compound 2 µM
  relative viability: 0.5
[13]; first compound 6.325 µM
  relative viability: 0.398
[13]; first compound 20 µM
  relative viability: 0.396
[14]; first compound 0.2 µM
  relative viability: 0.227
[14]; first compound 0.6325 µM
  relative viability: 0.317
[14]; first compound 2 µM
  relative viability: 0.26
[14]; first compound 6.325 µM
  relative viability: 0.308
[14]; first compound 20 µM
  relative viability: 0.219
[15]; first compound 0.2 µM
  relative viability: 0.555
[15]; first compound 0.6325 µM
  relative viability: 0.75
[15]; first compound 2 µM
  relative viability: 0.7
[15]; first compound 6.325 µM
  relative viability: 0.469
[15]; first compound 20 µM
  relative viability: 0.321
[16]; first compound 0.2 µM
  relative viability: 0.249
[16]; first compound 0.6325 µM
  relative viability: 1.24
[16]; first compound 2 µM
  relative viability: 0.36
[16]; first compound 6.325 µM
  relative viability: 0.329
[16]; first compound 20 µM
  relative viability: 0.173
[17]; first compound 0.2 µM
  relative viability: 0.0272
[17]; first compound 0.6325 µM
  relative viability: 0.0322
[17]; first compound 2 µM
  relative viability: 0.0432
[17]; first compound 6.325 µM
  relative viability: 0.0284
[17]; first compound 20 µM
  relative viability: 0.0278
[18]; first compound 0.2 µM
  relative viability: 0.29
[18]; first compound 0.6325 µM
  relative viability: 0.542
[18]; first compound 2 µM
  relative viability: 0.522
[18]; first compound 6.325 µM
  relative viability: 0.281
[18]; first compound 20 µM
  relative viability: 0.328
[19]; first compound 0.2 µM
  relative viability: 0.876
[19]; first compound 0.6325 µM
  relative viability: 0.785
[19]; first compound 2 µM
  relative viability: 0.617
[19]; first compound 6.325 µM
  relative viability: 0.67
[19]; first compound 20 µM
  relative viability: 0.495
[20]; first compound 0.2 µM
  relative viability: 0.952
[20]; first compound 0.6325 µM
  relative viability: 1.04
[20]; first compound 2 µM
  relative viability: 0.433
[20]; first compound 6.325 µM
  relative viability: 0.735
[20]; first compound 20 µM
  relative viability: 0.228
[21]; first compound 0.2 µM
  relative viability: 1.07
[21]; first compound 0.6325 µM
  relative viability: 1.1
[21]; first compound 2 µM
  relative viability: 0.992
[21]; first compound 6.325 µM
  relative viability: 0.846
[21]; first compound 20 µM
  relative viability: 0.452
[22]; first compound 0.2 µM
  relative viability: 0.223
[22]; first compound 0.6325 µM
  relative viability: 0.189
[22]; first compound 2 µM
  relative viability: 0.221
[22]; first compound 6.325 µM
  relative viability: 0.19
[22]; first compound 20 µM
  relative viability: 0.22
